Where a name gives a salt, the structure may show the parent alone.
Key:
diabetic mice [1] = experiment: Fasting blood glucose in STZ diabetic mice, intragastric 4 weeks (Example 25); type: in vivo, BALB/c mice
Procedure: (§1) Male BALB/c mice at 7 weeks of age, after adapting to the environment for 2 days, were randomly divided into normal control group (10 mice) and model-to-be established groups (70 mice). The mice in the normal control group were fed with normal diet. The mice in the model-to-be established groups were fed with high-fat diet, intraperitoneally injected with streptozotocin (STZ) in citrate buffer at a dose of 100 mg/kg, and then the diabetic mouse model was established. […] The mice with the blood glucouse level higher than 11.0 mmol/L and at the same time having polydipsia and polyuria were selected out as the diabetic mice. Then the selected diabetic mice were randomly divided into four groups: model control group, metformin group, Composition E group and Composition F group, 10 mice in each group. The mice were intragastric administered with the corresponding drugs: normal saline (100 μL for each mouse), metformin (0.05 ml/10 g), Composition E (0.05 ml/10 g) and Composition F (0.05 ml/10 g), respectively, once a day for 4 weeks. The mice in normal control group were administered with normal saline (100 μL for each mouse). The diabetic mice were fed with high-fat diet continuously and drank water freely, and the mice in normal control group were fed with normal diet and drank water freely.

diabetic mice [2] = experiment: Serum TC and TG in STZ diabetic mice after 4 weeks (Example 25); type: in vivo; conditions: after 4 weeks intragastric treatment, STZ + high-fat diet BALB/c mice
Procedure: as §1, with “The diabetic mice were fed with high-fat diet continuously and drank water freely, and the mice in normal control group were fed with normal diet and drank water freely.” left out
After the end of experiment, blood samples were collected from the eyeballs of the mice, serum was separated and the serum levels of TC and TG were detected.

[3] = system: mouse models of type 2 diabetes; experiment: Insulin tolerance test after 4-week treatment (Example 20); type: in vivo, KK mice; conditions: insulin 0.5 U/mL at 0.05 ml/10 g s.c. one hour after last dose of 4-week gavage treatment
[4] = system: mouse models of type 2 diabetes; experiment: Polypeptide mixture vs metformin, mouse models of type 2 diabetes, single gavage (Example 17); conditions: KK mice, polypeptide 2 mg/mL, metformin 20 mg/mL, each 0.05 ml/10 g
[5] = system: mouse models of type 2 diabetes; experiment: Pancreas weight, H&E staining and immunohistochemistry after 4-week treatment (Example 20); type: in vivo; conditions: KK mice sacrificed after treatment for four weeks by gavage
Text: 2.5 All mice were sacrificed after treatment for four weeks, and the pancreatic tissues were weighed, stained with H&E and detected by immunohistochemistry.

[6] = system: mouse models of type 2 diabetes; experiment: Oral glucose tolerance test after 4-week treatment (Example 20); type: in vivo, KK mice; conditions: glucose 2.5 g/kg by gavage one hour after last dose of 4-week gavage treatment
Procedure: 2.4 Oral glucose tolerance test: one hour after the last administration, the remaining mice in the diabetic model control group, metformin treatment group, polypeptide treatment group and normal control group (10 mice in each group) after the selection in experiment 2.3 were administered by gavage with glucose at a dose of 2.5 g/kg.

[7] = system: mouse models of type 2 diabetes; experiment: Blood glucose during 4-week gavage treatment, polypeptide mixture vs metformin (Example 20); conditions: KK mice, metformin 20 mg/mL, each 0.05 ml/10 g
[8] = system: mouse models of type 2 diabetes; experiment: Hypoglycemic activity of solid compositions, STZ/high-fat diet diabetic mice, gavage 4 weeks (Example 24); type: in vivo; conditions: fasting; STZ + high-fat diet C57BL/6 mice; gavage once a day; compositions 2 mg/mL polypeptide O, metformin 20 mg/mL (100 mg/Kg), each 0.05 ml/10 g
Procedure: Male C57BL/6 mice at 4 weeks of age, after adapting to the environment for 5 days, were randomly divided into normal control group (10 mice) and model-to-be established groups (90 mice). The mice in the normal control group were fed with normal diet. The mice in the model-to-be established groups were fed with high-fat diet and intraperitoneally injected with streptozotocin (STZ) in citrate buffer at a dose of 45 mg/kg. After injection, the mice were fasted for 1.5 hours and injected for 5 consecutive days, and then the diabetic mouse model was established. […] The mice with the fasting blood glucouse level between 10.0 and 20.0 mmol/L and at the same time having polydipsia and polyuria were selected out as the diabetic mice. Then, the selected diabetic mice were randomly divided into five groups: model control group, metformin group, Composition D group, […], and […], 10 mice in each group. The mice were administered by gavage with the corresponding drug: normal saline (100 μL for each mouse), metformin (0.05 ml/10 g), composition D (0.05 ml/10 g), composition E (0.05 ml/10 g) and composition F (0.05 ml/10 g), respectively, once a day for 4 weeks. The mice in normal control group were administered with normal saline (100 μL for each mouse). The diabetic mice were fed with high-fat diet continuously and drank water freely, and the mice in normal control group were fed with normal diet and drank water freely.

[9] = fasting, STZ (100 mg/kg) + high-fat diet BALB/c mice, intragastric once a day, compositions 2 mg/mL polypeptide O, metformin 200 mg/mL (1000 mg/kg), each 0.05 ml/10 g
[10] = gavage once a day, polypeptide tablet suspension 2 mg/ml

CN(C)C(=N)N=C(N)N [Metformin, Metformin hydrochloride] was tested, and the “Blood glucose level after four weeks” value (diabetic mice [1]; [9]) was 8.0 ± 0.7 mmol/L, the “Blood glucose level after one week” value (diabetic mice [1]; [9]) was 12.6 ± 0.7 mmol/L and the “Blood glucose level after three weeks” value (diabetic mice [1]; [9]) was 12.3 ± 1.0 mmol/L. For the same compound, the “Blood glucose level after two weeks” value (diabetic mice [1]; [9]) was 13.5 ± 0.7 mmol/L, the “control of blood glucose (conclusion)” value (diabetic mice [1]; metformin at ultra-high-dose 1000 mg/kg) was “could not control blood glucose effectively” and the “TC” value (diabetic mice [2]) was 2.32 ± 0.78 mmol/L. For the same compound, the “TG” value (diabetic mice [2]) was 1.87 ± 1.26 mmol/L, the “0 min blood glucose level” value [3] was 6.8 ± 0.8 mmol/L and the “30 min blood glucose level” value [3] was 4.1 ± 1.1 mmol/L. The “60 min blood glucose level” value [3] was 4.8 ± 1.2 mmol/L, the “90 min blood glucose level” value [3] was 5.4 ± 0.7 mmol/L and the “120 min blood glucose level” value [3] was 6.2 ± 1.3 mmol/L. The “Blood glucose level at 15 min after administration” value [4] was 12.6 ± 1.2 mmol/L, the “Blood glucose level at 30 min after administration” value [4] was 10.4 ± 0.9 mmol/L and the “Blood glucose level at 45 min after administration” value [4] was 9.3 ± 0.8 mmol/L. For the same compound, the “Blood glucose level at 60 min after administration” value [4] was 8.2 ± 0.5 mmol/L, the “Blood glucose level prior to administration” value ([4]; baseline) was 14.2 ± 1.1 mmol/L and the “Pancreas weight/body weight (%)” value [5] was 1.32 ± 0.06%. The “0 min blood glucose level” value [6] was 6.8 ± 0.8 mmol/L, the “30 min blood glucose level” value [6] was 16.8 ± 4.1 mmol/L and the “60 min blood glucose level” value [6] was 13.4 ± 2.4 mmol/L. The “90 min blood glucose level” value [6] was 10.6 ± 3.2 mmol/L, the “120 min blood glucose level” value [6] was 8.2 ± 1.7 mmol/L and the “Initial blood glucose level” value ([7]; gavage once a day for 4 weeks, polypeptide tablets (mixture:hydroxypropyl methylcellulose 8:2) suspension 2 mg/ml, baseline) was 9.3 ± 1.1 mmol/L. The “Blood glucose level after four weeks” value [7, 10] was 6.8 ± 0.8 mmol/L, the “Blood glucose level after one week” value [7, 10] was 8.1 ± 1.1 mmol/L and the “Blood glucose level after three weeks” value [7, 10] was 7.3 ± 1.2 mmol/L. For the same compound, the “Blood glucose level after two weeks” value [7, 10] was 7.2 ± 0.9 mmol/L, the “Blood glucose level after four weeks” value [8] was 9.2 ± 0.9 mmol/L and the “Blood glucose level after one week” value [8] was 11.9 ± 0.6 mmol/L. For the same compound, the “Blood glucose level after three weeks” value [8] was 11.3 ± 1.2 mmol/L and the “Blood glucose level after two weeks” value [8] was 13.2 ± 0.5 mmol/L.

From patent publication US20200038478A1, “POLYPEPTIDE AND COMPOSITION THEREOF FOR TREATING DISEASES OF METABOLIC SYSTEM” (WUHAN GRECTECH CO., LTD., priority 2017, published 2020)
